Source: patent US5599789A, “Method for the treatment of tumours and sarcomas” (Amrad Corporation Limited, priority 1991, dated 1997)

Key:
Assay type in all cases: cell-based, human
[1] = system: Ewing's Sarcoma cell line Al (uncloned); assay: Colony formation in semi-solid agar cultures, Al (uncloned) cells; details: Al(uncloned), 5,000 cells, day 18
Description: (§1) Tumour cells obtained from biopsy and bone marrow specimens from patients with Ewing's Sarcoma were used in these studies. Approval for this project has been obtained from the Ethics Committee of the Royal Children's Hospital.
(§2) Single cell suspensions of tumour cells were obtained by mechanical disruption with an 18G or 21G needle or by pipetting, followed by incubation with dispase II (Boehringer) at a concentration of 1.2 units per ml for 10 minutes at 37° C. Prior to the addition to agar-medium the cells were vortexed gently to prevent clumping.
(§3) Clonal cell lines were grown in Iscove's Modified Dulbecco's Medium (IMDM) supplemented with 10% v/v foetal calf serum (FCS; CSL Limited, Melbourne, Australia) and were passaged either weekly or twice weekly. The characteristics of the Ewing Sarcoma cell lines used herein as described below:
(§4) The tumour cells were immobilised in 0.3% w/v agar containing Iscove's Modified Dulbecco's Medium (IMDM) and 10% v/v FCS. […] Cultures were scored for the presence of colonies (>40 cells) or clusters (<40 cells). The number of cells plated per culture ranged from 500 to 10,000 per ml. Colonies were counted on an Olympus dissecting microscope.
(§5) IL-1, IL-3, IL-4, IL-6, M-CSF, G-CSF, GM-CSF, Stem Cell Factor (SCF), TNFα, TGFα, TGFβ, EGF, aFGF, bFGF, NGF, IGF I, IGF II, PDGF and IFN-γ.
(§6) The recombinant human leukaemia inhibitory factor (LIF) was obtained from AMRAD Corporation Limited, Melbourne, Australia.

[2] = system: Ewing's Sarcoma cell line Cu-1; assay: Colony formation in semi-solid agar cultures, Cu-1 cells; details: Cu-1, 10,000 cells, day 18
Description: as §1, §2, §3
(§7) Cell lines derived from the above primary cell lines (Al and Cu) are identified by an Arabic numeral (e.g. Al-1, Al-5, Al-8 or Cu-1).
as §4, §5, §6

[3] = system: Ewing's Sarcoma cell line Al-5; assay: Colony formation in semi-solid agar cultures, Al-5 cells; details: Al-5, 1,000 cells, day 18
Description: as §1, §2, §3, §7, §4, §5, §6

[4] = system: Ewing's Sarcoma cell line Al-8; assay: Colony formation in semi-solid agar cultures, Al-8 cells; details: Al-8, 1,000 cells, day 18
Description: as §1, §2, §3, §7, §4, §5, §6

[5] = system: Ewing's Sarcoma cell line Al-1; assay: Colony formation in semi-solid agar cultures, Al-1 cells; details: day 18
Description: as §1, §2, §3, §7, §4, §5, §6

[6] = system: Ewing's Sarcoma cells; assay: Colony formation in agar cultures, a number of different Ewing's cell lines (summary statements); details: doses of Tables 1-3; TNF-α dose far above the physiological dose
Excerpt: as §4

[7] = stimulus 100 ng, mean of duplicate colony counts
[8] = Al-1, 1,000 cells, stimulus 100 ng, mean of duplicate colony counts
[9] = Al-1, 10,000 cells, stimulus 100 ng, mean of duplicate colony counts

## TGFb
[1]; stimulus 5 ng
  Colonies/Cultures: 175
[2]; stimulus 5 ng
  Colonies/Cultures: 385
[3]; stimulus 5 ng
  Colonies/Cultures: 41
[4]; stimulus 5 ng
  Colonies/Cultures: 45
[5]; Al-1, 10,000 cells, stimulus 5 ng
  Colonies/Cultures: 540

## NGF: commercially available growth factor
[1]; [7]
  Colonies/Cultures: 165
[2]; [7]
  Colonies/Cultures: 360
[3]; [7]
  Colonies/Cultures: 32
[4]; [7]
  Colonies/Cultures: 52
[5]; [8]
  Colonies/Cultures: 49
[5]; [9]
  Colonies/Cultures: 810

## IL-4: commercially available growth factor, used at 1:3000
[1]; stimulus 1:3000
  Colonies/Cultures: 165
[2]; stimulus 1:3000
  Colonies/Cultures: 325
[3]; stimulus 1:3000
  Colonies/Cultures: 38
[4]; stimulus 1:3000
  Colonies/Cultures: 82
[5]; Al-1, 1,000 cells, stimulus 1:3000
  Colonies/Cultures: 47
[5]; Al-1, 10,000 cells, stimulus 1:3000
  Colonies/Cultures: 720

## TNFa
[1]; stimulus 5 ug
  Colonies/Cultures: 39
[2]; stimulus 5 ug
  Colonies/Cultures: 190
[3]; stimulus 5 ug
  Colonies/Cultures: 0
[6]
  Effect on colony counts of the other factors: with the exception of TNF-α showed any effect on colony counts
[4]; stimulus 5 ug
  Colonies/Cultures: 1
[5]; Al-1, 10,000 cells, stimulus 5 ug
  Colonies/Cultures: 2

## SCF: commercially available growth factor, Stem Cell Factor
[1]; [7]
  Colonies/Cultures: 225
[2]; [7]
  Colonies/Cultures: 440
[3]; [7]
  Colonies/Cultures: 42
[4]; [7]
  Colonies/Cultures: 77
[5]; [8]
  Colonies/Cultures: 51
[5]; [9]
  Colonies/Cultures: 950

## TGFa: commercially available growth factor
[1]; stimulus 20 ng
  Colonies/Cultures: 190
[2]; stimulus 20 ng
  Colonies/Cultures: 390
[4]; stimulus 20 ng
  Colonies/Cultures: 87

## aFGF: commercially available growth factor
[1]; [7]
  Colonies/Cultures: 260
[2]; [7]
  Colonies/Cultures: 520
[3]; [7]
  Colonies/Cultures: 58
[4]; [7]
  Colonies/Cultures: 128
[5]; [8]
  Colonies/Cultures: 57
[5]; [9]
  Colonies/Cultures: 975

## PDGF
[1]; stimulus 30 ng
  Colonies/Cultures: 352
[2]; stimulus 30 ng
  Colonies/Cultures: 390
[3]; stimulus 30 ng
  Colonies/Cultures: 39
[4]; stimulus 30 ng
  Colonies/Cultures: 72
[5]; Al-1, 1,000 cells, stimulus 30 ng
  Colonies/Cultures: 47
